# Target: G12C K-Ras4B (1-169) (Homo sapiens (Human), UniProt P01116, G12C)
# Test: Test of compounds on whether to bind to KRASG12C (LC-MS compound binding rate)
# Conditions: final compound concentration of 2 μM, 1 μM protein, 25° C. for 2 hours
# Experimental: Test compounds were prepared in the form of a 10 mM DMSO solution.
# K-Ras4B (1-169) and G12C K-Ras4B (1-169) proteins were mixed and diluted with a buffer (1×TBS, 0.1 mM TCEP) to prepare individual 1 μM protein solutions. A 10 mM test compound was diluted tenfold with DMSO to make a 1 mM solution, and then diluted fivefold with DMSO to make a 200 μM solution. The 200 μM solution was further diluted fivefold to make a 40 μM solution. When the final compound concentration was 10 μM, 1 μL of a 200 μM test compound was added to 19 μL of a 1 μM protein solution. When the final compound concentration was 2 μM, 1 μL of a 40 μM test compound was added to 19 μL of a 1 μM protein solution. The mixtures were stored in an incubator at 25° C. for 2 hours, and 80 μL of a 1×TBS solution containing 0.2% formic acid was added thereto to end the reaction, followed by LC-MS measurement. LC-MS measurement was performed using Xevo G2-S Q-Tof manufactured by Waters, and reverse-phase chromatography was performed with a desalting column. A mass spectrum of positive ions was obtained by electrospray. For a mass spectrum, a spectrum of a polyvalent ion was collectively converted to a molecular weight by using OpenLynx software by the MaxEnt technique, and a compound binding rate was obtained from the ratio of a signal intensity that corresponds to the molecular weight of a protein to a signal intensity that corresponds to the molecular weight of a compound binding to the protein.
# By obtaining the compound binding rate for K-Ras4B (1-169) and the compound binding rate for G12C K-Ras4B (1-169) at the same time, information of the selectivity for G12C K-Ras4B (1-169) was obtained at the same time.
# The test compounds were measured at their final compound concentration of 2 μM. […] Almost no compounds of the present invention binded to K-Ras4B (1-169). The “binding rate” (%) for each of K-Ras4B (1-169) and G12C K-Ras4B (1-169) refers to the ratio of the signal intensity of binded forms to the sum of the signal intensity of non-binded forms and the signal intensity of binded forms.
row,SMILES,binding rate for G12C K-Ras4B (1-169)
1,"CC#CC(=O)N1CC(NC(=O)c2c(C)nc(CNc3n[nH]c4cc(Cl)c(C(C)(C)C)cc34)n2C(C)C)C1 [Example 82, N-(1-(buty-2-noyl)azetidin-3-yl)-2-(((5-(tert-butyl)-6-chloro-1H-indazol-3-yl)amino)methyl)-1-isopropyl-4-methyl-1H-imidazole-5-carboxamide]","D (a binding rate of 20% or more and less than 40% is rated “D,”)"
2,"C=CC(=O)N1CC(NC(=O)c2c(Cl)nc(CNc3n[nH]c4cc(Cl)c(C(C)(C)C)cc34)n2CC2CCCC2)C1 [Example 110, N-(1-acryloylazetidin-3-yl)-2-(((5-(tert-butyl)-6-chloro-1H-indazol-3-yl)amino)methyl)-4-chloro-1-(cyclopentylmethyl)-1H-imidazole-5-carboxamide]","A (a binding rate of 80% or more is rated “A,”)"
3,"C=CS(=O)(=O)N1CC(NC(=O)c2c(C)nc(CNc3n[nH]c4cc(Cl)c(C(C)(C)C)cc34)n2C(C)C)C1 [Example 86, 2-(((5-(tert-butyl)-6-chloro-1H-indazol-3-yl)amino)methyl)-1-isopropyl-4-methyl-N-(1-(vinylsulfonyl)azetidin-3-yl)-1H-imidazole-5-carboxamide]","A (a binding rate of 80% or more is rated “A,”)"
4,"C=CC(=O)N1CC(NC(=O)c2c(Cl)nc(CNc3n[nH]c4cc(Cl)c(C(C)(C)C)cc34)n2[C@@H]2CCN(Cc3ccccc3)C2)C1 [Example 122, (R)—N-(1-acryloylazetidin-3-yl)-1-(1-benzylpyrrolidin-3-yl)-2-(((5-(tert-butyl)-6-chloro-1H-indazol-3-yl)amino)methyl)-4-chloro-1H-imidazole-5-carboxamide]","A (a binding rate of 80% or more is rated “A,”)"
5,"C=CC(=O)N1CC(NC(=O)c2c(F)nc(CNc3n[nH]c4cc(Cl)c(C(C)(C)C)cc34)n2C)C1 [Example 30, N-(1-acryloylazetidin-3-yl)-2-(((5-(tert-butyl)-6-chloro-1H-indazol-3-yl)amino)methyl)-4-fluoro-1-methyl-1H-imidazole-5-carboxamide]","C (a binding rate of 40% or more and less than 60% is rated “C,”)"
6,"C=CC(=O)N1CC(NC(=O)c2ccc(CNc3n[nH]c4cc(Cl)c(C(C)(C)C)cc34)o2)C1 [Reference Example 2, N-(1-acryloylazetidin-3-yl)-5-(((5-(tert-butyl)-6-chloro-1H-indazol-3-yl)amino)methyl)furan-2-carboxamide, reference compound]",E (a binding rate of less than 20% is rated “E.”)
7,"C=CC(=O)N1CC(NC(=O)c2c(C(F)(F)F)nc(CNc3n[nH]c4cc(Cl)c(C(C)(C)C)cc34)n2C(C)C)C1 [Example 32, N-(1-acryloylazetidin-3-yl)-2-(((5-(tert-butyl)-6-chloro-1H-indazol-3-yl)amino)methyl)-1-isopropyl-4-(trifluoromethyl)-1H-imidazole-5-carboxamide]","B (a binding rate of 60% or more and less than 80% is rated “B,”)"
8,"C=CC(=O)N1C[C@H](NC(=O)c2c(C(F)F)nc(CNc3n[nH]c4cc(Cl)c(C(C)(C)C)cc34)n2C)[C@@H](F)C1 [Example 70, N-((3S,4S)-1-acryloyl-4-fluoropyrrolidin-3-yl)-2-(((5-(tert-butyl)-6-chloro-1H-indazol-3-yl)amino)methyl)-4-(difluoromethyl)-1-methyl-1H-imidazole-5-carboxamide]","A (a binding rate of 80% or more is rated “A,”)"
9,"C=CC(=O)N1CC(NC(=O)c2c(C)nc(CNc3n[nH]c4cc(Cl)c(C(C)(C)C)cc34)n2CCN(C)C)C1 [Example 16, N-(1-acryloylazetidin-3-yl)-2-(((5-(tert-butyl)-6-chloro-1H-indazol-3-yl)amino)methyl)-1-(2-(dimethylamino)ethyl)-4-methyl-1H-imidazole-5-carboxamide]","B (a binding rate of 60% or more and less than 80% is rated “B,”)"
10,"C=CC(=O)N1CC(NC(=O)c2c(Cl)nc(CNc3n[nH]c4cc(Cl)c(C(C)(C)C)cc34)n2C2CCCCC2)C1 [Example 109, N-(1-acryloylazetidin-3-yl)-2-(((5-(tert-butyl)-6-chloro-1H-indazol-3-yl)amino)methyl)-4-chloro-1-cyclohexyl-1H-imidazole-5-carboxamide]","B (a binding rate of 60% or more and less than 80% is rated “B,”)"
11,"C=CC(=O)N1CC(NC(=O)c2c(Cl)nc(CNc3n[nH]c4cc(Cl)c(C5(C(F)(F)F)CC5)cc34)n2C(C)C)C1 [Example 44, N-(1-acryloylazetidin-3-yl)-4-chloro-2-(((6-chloro-5-(1-(trifluoromethyl)cyclopropyl)-1H-indazol-3-yl)amino)methyl)-1-isopropyl-1H-imidazole-5-carboxamide]","B (a binding rate of 60% or more and less than 80% is rated “B,”)"
12,"C=CC(=O)N1CC[C@@H](NC(=O)c2c(Cl)nc(CNc3n[nH]c4cc(Cl)c(C(C)(C)C)cc34)n2C)C1 [Example 73, (R)—N-(1-acryloylpyrrolidin-3-yl)-2-(((5-(tert-butyl)-6-chloro-1H-indazol-3-yl)amino)methyl)-4-chloro-1-methyl-1H-imidazole-5-carboxamide]","B (a binding rate of 60% or more and less than 80% is rated “B,”)"
13,"C=CC(=O)N1CC(NC(=O)c2c(Cl)nc(CNc3n[nH]c4cc(Cl)c(C(C)(C)C)cc34)n2C2CCCN(C)C2)C1 (stereo not shown) [Example 118, N-(1-acryloylazetidin-3-yl)-2-(((5-(tert-butyl)-6-chloro-1H-indazol-3-yl)amino)methyl)-4-chloro-1-(1-methylpiperidin-3-yl)-1H-imidazole-5-carboxamide]","A (a binding rate of 80% or more is rated “A,”)"
14,"C=CC(=O)N1C[C@@H](COC)[C@@H](NC(=O)c2c(C)nc(CNc3n[nH]c4cc(Cl)c(C(C)(C)C)cc34)n2C)C1 [Example 67, N-((3R,4R)-1-acryloyl-4-(methoxymethyl)pyrrolidin-3-yl)-2-(((5-(tert-butyl)-6-chloro-1H-indazol-3-yl)amino)methyl)-1,4-dimethyl-1H-imidazole-5-carboxamide]","A (a binding rate of 80% or more is rated “A,”)"
15,"C=CC(=O)N1C[C@@H](C)[C@@H](NC(=O)c2c(C(F)F)nc(CNc3n[nH]c4cc(Cl)c(C(C)(C)C)cc34)n2C)C1 [Example 71, N-((3R,4R)-1-acryloyl-4-methylpyrrolidin-3-yl)-2-(((5-(tert-butyl)-6-chloro-1H-indazol-3-yl)amino)methyl)-4-(difluoromethyl)-1-methyl-1H-imidazole-5-carboxamide]","C (a binding rate of 40% or more and less than 60% is rated “C,”)"
16,"C/C=C/C(=O)N1CC(NC(=O)c2c(C)nc(CNc3n[nH]c4cc(Cl)c(C(C)(C)C)cc34)n2C(C)C)C1 [Example 81, (E)-N-(1-(but-2-enoyl)azetidin-3-yl)-2-(((5-(tert-butyl)-6-chloro-1H-indazol-3-yl)amino)methyl)-1-isopropyl-4-methyl-1H-imidazole-5-carboxamide]",E (a binding rate of less than 20% is rated “E.”)
17,"C=CC(=O)N1CC(NC(=O)c2c(C(F)F)nc(CNc3n[nH]c4cc(Cl)c(C(C)(C)C)cc34)n2C2CCN(C)C2)C1 (stereo not shown) [Example 91, N-(1-acryloylazetidin-3-yl)-2-(((5-(tert-butyl)-6-chloro-1H-indazol-3-yl)amino)methyl)-4-(difluoromethyl)-1-(1-methylpyrrolidin-3-yl)-1H-imidazole-5-carboxamide]","A (a binding rate of 80% or more is rated “A,”)"
18,"C=CC(=O)N1CC(NC(=O)c2c(Cl)nc(CNc3n[nH]c4cc(Cl)c(C(C)(C)C)cc34)n2-c2ccccn2)C1 [Example 94, N-(1-acryloylazetidin-3-yl)-2-(((5-(tert-butyl)-6-chloro-1H-indazol-3-yl)amino)methyl)-4-chloro-1-(pyridin-2-yl)-1H-imidazole-5-carboxamide]","B (a binding rate of 60% or more and less than 80% is rated “B,”)"
19,"C=CC(=O)N1C[C@@H](F)[C@@H](NC(=O)c2c(C)nc(CNc3n[nH]c4cc(Cl)c(C(C)(C)C)cc34)n2C)C1 [Example 57, N-((3S,4R)-1-acryloyl-4-fluoropyrrolidin-3-yl)-2-(((5-(tert-butyl)-6-chloro-1H-indazol-3-yl)amino)methyl)-1,4-dimethyl-1H-imidazole-5-carboxamide]","C (a binding rate of 40% or more and less than 60% is rated “C,”)"
